Source: US7138361B2, “Herbicidal heterocycles” (E. I. du Pont de Nemours and Company, priority 2000, dated 2006)

Key:
Format in all cases: in vivo
[1] = system: Surinam grass (Brachiaria decumbens); assay: Test B preemergence
How it was run: (§1)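 Seeds were planted and sprayed preemergence with test chemical in a non-phytotoxic solvent mixture containing surfactant; postemergence plants (2 to 18 cm, 1- to 4-leaf stage) received the same formulation. Greenhouse hold 13 to 15 days, then visual rating versus untreated controls on a 0–100 scale (0 no effect, 100 complete control).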

[2] = system: barnyardgrass (Echinochloa crus-galli); assay: Test B preemergence
How it was run: as §1

[3] = system: cocklebur (Xanthium strumarium); assay: Test B preemergence
How it was run: as §1

corn (Zea mays) = assay: Test B preemergence
How it was run: as §1

[4] = system: crabgrass (Digitaria sanguinalis); assay: Test B preemergence
How it was run: as §1

[5] = system: giant foxtail (Setaria faberii); assay: Test B preemergence
How it was run: as §1

[6] = system: lambsquarters (Chenopodium album); assay: Test B preemergence
How it was run: as §1

[7] = system: morning glory (Ipomoea hederacea); assay: Test B preemergence
How it was run: as §1

[8] = system: pigweed (Amaranthus retroflexus); assay: Test B preemergence
How it was run: as §1

rice (Oryza saliva) = assay: Test B preemergence
How it was run: as §1

[9] = system: velvetleaf (Abutilon theophrasti); assay: Test B preemergence
How it was run: as §1

Nightshade = assay: Test C preemergence
[10] = system: Surinam grass (Brachiaria decumbens); assay: Test C preemergence; settings: for Plant response rating (0 to 100), Surinam grass: visual evaluation after 12 to 14 days
How it was run: (§2)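 Response scores (0 no effect to 100 complete control) came from visual comparison with untreated controls 12 to 14 days after treatment. Preemergence application was made to seeded soil; postemergence, to plants at the 1- to 4-leaf stage.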

[11] = system: cocklebur (Xanthium strumarium); assay: Test C preemergence; settings: for Plant response rating (0 to 100), Cocklebur: visual evaluation after 12 to 14 days
How it was run: as §2

[12] = system: common ragweed (Ambrosia elatior); assay: Test C preemergence
How it was run: as §2

[13] = system: crabgrass (Digitaria sanguinalis); assay: Test C preemergence; settings: for Plant response rating (0 to 100), Crabgrass: visual evaluation after 12 to 14 days
How it was run: as §2

[14] = system: goosegrass (Eleusine indica); assay: Test C preemergence; settings: for Plant response rating (0 to 100), Goosegrass: visual evaluation after 12 to 14 days
How it was run: as §2

[15] = system: lambsquarters (Chenopodium album); assay: Test C preemergence
How it was run: as §2

[16] = system: pigweed (Amaranthus retroflexus); assay: Test C preemergence
How it was run: as §2

soybean (Glycine max) = assay: Test C preemergence
How it was run: as §2

[17] = system: woolly cupgrass (Eriochloa villosa); assay: Test C preemergence; settings: for Plant response rating (0 to 100), Cupgrass, Woolly: visual evaluation after 12 to 14 days
How it was run: as §2

[18] = Preemergence, Rate 500 g/ha, scale 0 to 100, 0 no effect, 100 complete control
[19] = preemergence, Rate 125 g/ha, scale of 0 to 100 where 0 is no effect and 100 is complete control, 13 to 15 days
[20] = Rate 62 g/ha, scale 0 to 100, 0 no effect, 100 complete control
[21] = Rate 125 g/ha, scale 0 to 100, 0 no effect, 100 complete control
[22] = Rate 250 g/ha, scale 0 to 100, 0 no effect, 100 complete control
[23] = preemergence, Rate 31 g/ha, scale 0 to 100
[24] = preemergence, Rate 250 g/ha, scale 0 to 100, 0 no effect, 100 complete control
[25] = preemergence, Rate 500 g/ha, visual evaluation after 12 to 14 days

CCC(CC)c1ccn(C2CCN(c3ccc(C)c(OC)c3)C2=O)n1 (stereo not shown) [Compound 81]
60: Plant response rating, Crabgrass [13, 23]
0: Plant response rating, Cocklebur [3, 19] | Plant response rating, Corn (corn (Zea mays); [19]) | Plant response rating, Surinam grass [10, 23] | Plant response rating, Cocklebur [11, 20] | Plant response rating, Cocklebur [11, 21] | Plant response rating, Cocklebur [11, 23] | Plant response rating, Cupgrass, Woolly [17, 23]
20: Plant response rating, Surinam grass [10, 20] | Plant response rating (0 to 100), Cocklebur ([11]; preemergence, Rate 250 g/ha)
50: Plant response rating, Rice (rice (Oryza saliva); [19]) | Plant response rating, Surinam grass [10, 21]
100: Plant response rating, Surinam grass [1, 18] | Plant response rating, Barnyardgrass [2, 18] | Plant response rating, Barnyardgrass [2, 19] | Plant response rating, Crabgrass [4, 18] | Plant response rating, Crabgrass [4, 19] | Plant response rating, Foxtail, Giant [5, 18] | Plant response rating, Foxtail, Giant [5, 19] | Plant response rating, Lambsquarters [6, 18] | Plant response rating, Lambsquarters [6, 19] | Plant response rating, Morningglory [7, 18] | Plant response rating, Pigweed [8, 18] | Plant response rating, Pigweed [8, 19] | Plant response rating, Nightshade (Nightshade; [20]) | Plant response rating, Nightshade (Nightshade; [21]) | Plant response rating, Nightshade (Nightshade; [22]) | Plant response rating (0 to 100), Surinam grass ([10]; preemergence, Rate 250 g/ha) | Plant response rating, Ragweed, Common [12, 21] | Plant response rating, Ragweed, Common [12, 24] | Plant response rating, Crabgrass [13, 20] | Plant response rating, Crabgrass [13, 21] | Plant response rating (0 to 100), Crabgrass ([13]; preemergence, Rate 250 g/ha) | Plant response rating, Goosegrass [14, 20] | Plant response rating, Goosegrass [14, 21] | Plant response rating (0 to 100), Goosegrass ([14]; preemergence, Rate 250 g/ha) | Plant response rating, Lambsquarters [15, 20] | Plant response rating, Lambsquarters [15, 21] | Plant response rating, Lambsquarters [15, 23] | Plant response rating, Lambsquarters [15, 24] | Plant response rating, Pigweed [16, 21] | Plant response rating, Pigweed [16, 23] | Plant response rating, Pigweed [16, 24] | Plant response rating, Soybean (soybean (Glycine max); [24]) | Plant response rating (0 to 100), Cupgrass, Woolly ([17]; preemergence, Rate 250 g/ha)
30: Plant response rating, Corn (corn (Zea mays); [18]) | Plant response rating, Morningglory [7, 19] | Plant response rating, Ragweed, Common [12, 23] | Plant response rating, Soybean (soybean (Glycine max); [23]) | Plant response rating, Cupgrass, Woolly [17, 20] | Plant response rating, Cupgrass, Woolly [17, 21]
90: Plant response rating, Surinam grass [1, 19] | Plant response rating, Cocklebur [3, 18] | Plant response rating, Rice (rice (Oryza saliva); [18]) | Plant response rating, Goosegrass [14, 23]
70: Plant response rating, Velvetleaf [9, 19] | Plant response rating, Nightshade (Nightshade; Rate 31 g/ha, scale 0 to 100)
80: Plant response rating, Velvetleaf [9, 18]

CCC(C)c1ccn(C2CCN(c3cccc(OC(C)C)c3)C2=O)n1 (stereo not shown) [Compound 83]
90: Plant response rating, Surinam grass [1, 18] | Plant response rating (0 to 100), Surinam grass ([10]; preemergence, Rate 250 g/ha) | Plant response rating, Cupgrass, Woolly [17, 21]
0: Plant response rating, Cocklebur [3, 18] | Plant response rating, Cocklebur [3, 19] | Plant response rating, Morningglory [7, 19] | Plant response rating, Velvetleaf [9, 18] | Plant response rating, Velvetleaf [9, 19] | Plant response rating, Nightshade (Nightshade; [20]) | Plant response rating, Cocklebur [11, 20] | Plant response rating, Cocklebur [11, 21] | Plant response rating (0 to 100), Cocklebur ([11]; preemergence, Rate 500 g/ha) | Plant response rating, Ragweed, Common [12, 21] | Plant response rating, Ragweed, Common [12, 24] | Plant response rating, Soybean (soybean (Glycine max); [21]) | Plant response rating, Soybean (soybean (Glycine max); [24])
10: Plant response rating (0 to 100), Soybean (soybean (Glycine max); [25])
20: Plant response rating, Corn (corn (Zea mays); [18]) | Plant response rating, Corn (corn (Zea mays); [19]) | Plant response rating, Rice (rice (Oryza saliva); [19])
40: Plant response rating, Surinam grass [10, 20]
100: Plant response rating, Barnyardgrass [2, 18] | Plant response rating, Barnyardgrass [2, 19] | Plant response rating, Crabgrass [4, 18] | Plant response rating, Crabgrass [4, 19] | Plant response rating, Foxtail, Giant [5, 18] | Plant response rating, Foxtail, Giant [5, 19] | Plant response rating, Lambsquarters [6, 18] | Plant response rating, Lambsquarters [6, 19] | Plant response rating, Pigweed [8, 18] | Plant response rating, Pigweed [8, 19] | Plant response rating, Rice (rice (Oryza saliva); [18]) | Plant response rating (0 to 100), Surinam grass ([10]; preemergence, Rate 500 g/ha) | Plant response rating (0 to 100), Ragweed, Common [12, 25] | Plant response rating, Crabgrass [13, 20] | Plant response rating, Crabgrass [13, 21] | Plant response rating (0 to 100), Crabgrass ([13]; preemergence, Rate 250 g/ha) | Plant response rating (0 to 100), Crabgrass ([13]; preemergence, Rate 500 g/ha) | Plant response rating, Goosegrass [14, 20] | Plant response rating, Goosegrass [14, 21] | Plant response rating (0 to 100), Goosegrass ([14]; preemergence, Rate 250 g/ha) | Plant response rating (0 to 100), Goosegrass ([14]; preemergence, Rate 500 g/ha) | Plant response rating, Lambsquarters [15, 20] | Plant response rating, Lambsquarters [15, 21] | Plant response rating (0 to 100), Lambsquarters [15, 25] | Plant response rating, Lambsquarters [15, 24] | Plant response rating (0 to 100), Pigweed [16, 25] | Plant response rating, Pigweed [16, 24] | Plant response rating (0 to 100), Cupgrass, Woolly ([17]; preemergence, Rate 250 g/ha) | Plant response rating (0 to 100), Cupgrass, Woolly ([17]; preemergence, Rate 500 g/ha)
60: Plant response rating, Nightshade (Nightshade; [22])
80: Plant response rating, Cupgrass, Woolly [17, 20]
50: Plant response rating, Nightshade (Nightshade; [21]) | Plant response rating, Surinam grass [10, 21] | Plant response rating, Pigweed [16, 21]
70: Plant response rating, Surinam grass [1, 19]
30: Plant response rating (0 to 100), Cocklebur ([11]; preemergence, Rate 250 g/ha)
